Measurements taken from US11773063B1, “Pharmaceutically acceptable salts and compositions thereof” (priority 2022, dated 2023).
Where a name gives a salt, the structure may show the parent alone.

Tests used:
[1] = Thermo-Gravimetric Analysis (TGA), thermal stability; settings: for thermal stability up to (TGA): 10° C./min, nitrogen
Method: Thermo—Gravimetric Analysis (TGA)
TGA thermograms were obtained with a TA Instrument Discovery 550 in Al pans. The heating rate used was 10° C./min linear ramp from 25 to 400° C. with a nitrogen purging at a rate of 60 ml/min. TGA thermograms were analysed using TRIOS software.

[2] = Dynamic Vapor Sorption (DVS), salt screen and scale-up salts; format: physicochemical; settings: for moisture absorption at 70% RH / moisture absorption at 80% RH / water uptake up to 60% RH: first sorption isotherm; for moisture absorption at 70% RH / moisture absorption at 80% RH / water uptake up to 60% RH / deliquescence during DVS / hygroscopicity class: 25° C.; for deliquescence during DVS: high RH; for hygroscopicity class: DVS
Method: Dynamic Vapor Sorption (DVS)
DVS analyses were performed on TA Instrument DVS Q5000. Samples were added to a pre-tared metallised quartz crucible and run at 25° C. from 40% RH to 90% RH, down to zero and back to 40%. This cycle was repeated in increments of 10% RH.

[3] = Storage at 40° C./75% RH and 25° C./97% RH for 7 days, XRPD and HPLC (Example 3); format: physicochemical
Method: FIG. 128. XRPD diffractogram overlay of 5-MeO-DMT Phosphate Pattern 1 before and after storage at 25° C./97% RH and 40° C./75% RH for 7 days.
FIG. 139. XRPD diffractogram overlay of 5-MeO-DMT Tartrate Pattern 1 before and after storage at 25° C./97% RH and 40° C./75% RH for 7 days.
The sample is classed as slightly hygroscopic with a total reversible mass change of 0.3 wt. % between 0-90% RH. The DVS isotherm and DVS kinetic plot can be seen in FIGS. 124 and 125, respectively. The solid form was unchanged after a double-cycle experiment, the XRPD analysis confirming this can be seen in FIG. 126.
The sample is classed as slightly hygroscopic with a total reversible mass change of 0.6 wt. % between 0-90% RH (FIG. 135). The solid-form was unchanged after the double-cycle experiment (FIG. 136).

[4] = DVS double-cycle experiment (Example 3); format: physicochemical
[5] = Polymorph assessment, slurry maturation in 10 solvents between 5 and 50° C.; format: physicochemical; set-up: key to Observation at 50° C. / Observation at 5° C.: ✓ = solution; ✓/X = turbid solution; X = suspension; settings: 5-MeO-DMT phosphate, input DR-2186-45-01 (PHO Pattern 1+Extra Peaks), 20 mg in 10 volumes; solvent per sample: -01 MeOH, -02 Acetone, -03 CAN, -04 IPA:Water 9:1, -05 2-MeTHF, -06 EtOAc, -07 Ethanol, -08 Toluene, -09 MEK, -10 TBME
Method: (§1) DR-2186-45-01 (20 mg, PHO Pattern 1+Extra Peaks) was weighed into 10 HPLC vials. To this was added 10 volumes (200 μL) of solvent, a stirrer bar and the samples heated to 50° C. on a Polar Bear heat/cool block (400 RPM). After holding at 50° C. for 30 minutes and observation was made and the samples cooled to 5° C. where a further observation was made. All samples were than subjected to heat/cool cycles between 5 and 50° C. holding for 4 hours at each temperature for 24 hours.
A polymorph assessment was carried out in 10 different solvents using PHO Pattern 1+extra peaks as the input material, maturating a slurry of the salt between 5° C. and 50° C. for 24 hours. The results of the XRPD analysis of the samples can be seen in FIG. 118. The isolated solid was the same as the input material in all cases other than MeOH.
as §1, with “DR-2186-46-01” for “DR-2186-45-01”, “TAR” for “PHO”, “1)” for “1+Extra Peaks)”
A polymorph assessment was carried out in 10 different solvents, maturating a slurry of the salt between 5° C. and 50° C. for 24 hours.

[6] = format: physicochemical; settings: 40° C./75% RH, three days
Method: Physical Stability of Salts
Physical stability stress tests were conducted on generated crystalline salts at controlled temperature and relative humidity. The powder samples were stored at 40° C./75% RH for three days. After this time samples were analysed by XRPD to see whether the physical state of salts changed during the storage.

[7] = Solubility assessment in four different media; format: physicochemical; settings: four media: SNF, pH 1.2, pH 4.5 and pH 6.8 media, 37 °C, aqueous buffer, thermodynamic from solid; four different media
Method: Solubility assessments of 5-MeO-DMT oxalate, hydrobromide fumarate and benzoate were performed in four different media: […]

[8] = Polymorphism screen of hydrochloride and benzoate salts: thermal cycling, evaporation, antisolvent addition, cooling (XRPD); format: physicochemical
Method: Twenty five of the lyophilised samples were treated with solvent and thermally cycled between ambient and 40° C. with four hours spent under each condition. After three days and solids were isolated by centrifuge filtration and analysed by XRPD.
(§2) Twelve samples of the lyophilised material were treated with a minimal volume (ca 0.5 ml) of warm solvent, syringe filtered through a 0.22 µm filter and added to a clean HPLC vial and allowed to evaporate at RT. The solvents used and XRPD results following evaporation are detailed in the Table below:
as §2, with “micrometre” for “µm”
For antisolvent additions thirteen samples of the lyophilised material were dissolved in a small amount of hot solvent (^˜0.5 ml). […] A large excess of antisolvent was then added, the vials sealed. After storage at RT overnight, and samples where no solid had been produced were first cooled to 4° C. for ˜24 hrs, and again if no solid was produced, they were cooled to −18° C. Any solids were isolated by centrifuge filtration and analysed by XRPD.
For the cooling experiments twelve samples of the lyophilised material were dissolved in a small amount of hot solvent (^˜[…]) and syringe filtered through a 0.22 μm filter into a clean HPLC vial. Samples were allowed to cool to RT, and if no solid was produced to 4° C. and then to −18° C. Solids were isolated by centrifuge filtration and analysed by XRPD.

For COc1ccc2[nH]cc(CCN(C)C)c2c1 [Benzenesulfonate salt, 5-MeO-DMT benzenesulfonate], which “thermal stability up to (TGA)” value [1] is on record?
The value was 250 °C.

What about the “moisture absorption at 70% RH” value [2] of the same compound?
The value was 7 % w/w.

What about the “moisture absorption at 80% RH” value [2] of the same compound?
Its value is 14 % w/w.

What about the “water uptake up to 60% RH” value [2] of the same compound?
Its value is 1.2 % w/w.

And the “deliquescence during DVS” value [2]?
Its value is “begins to deliquesce”.

With COc1ccc2[nH]cc(CCN(C)C)c2c1.O=P(O)(O)O [DR-2186-48-01] as the compound, how does the TGA decomposition onset [1] read?
The TGA decomposition onset was 130-170 °C Decomposition onset from 180 °C.

What about the “TGA further mass lost during the melt” value ([1]; 130-170° C.) of the same compound?
Its value is “further 0.95% (0.1 mol eq. MeOH) was lost during the melt,”.

What about the TGA mass loss ([1]; from 40-125° C.) of the same compound?
The TGA mass loss was 0.4 wt. % (0.04 mol. eq. MeOH) mass loss from 40-125 °C A.

And the “Static Storage 7 days - 25° C./97% RH, XRPD” value ([3]; 25° C./97% RH)?
Its value is “XRPD - PHO Pattern 1”.

And the “Static Storage 7 days - 25° C./97% RH, HPLC” value ([3]; 25° C./97% RH, HPLC purity)?
The value was “HPLC - 98.0%”.

What about the “Static Storage 7 days - 40° C./75% RH, XRPD” value ([3]; 40° C./75% RH) of the same compound?
The value was “XRPD - PHO Pattern 1”.

What about the “Static Storage 7 days - 40° C./75% RH, HPLC” value ([3]; 40° C./75% RH, HPLC purity) of the same compound?
The value was “HPLC - 98.1%”.

What about the “GVS hygroscopicity class (European Pharmacopeia definitions)” value [4] of the same compound?
Its value is “slightly hygroscopic (based on European Pharmacopeia (Pharmaceuticals that pick up between 0.2% and 2.0% moisture at 80% RH are considered slightly hygroscopic)”.

What about the “GVS total mass change as mol eq. water” value ([4]; from 0-90% RH) of the same compound?
Its value is 0.06 mol eq. water.

What about the “GVS total mass change” value ([4]; from 0-90% RH, double cycle) of the same compound?
Its value is 0.34 wt. %.

For COc1ccc2[nH]cc(CCN(C)C)c2c1.O=P(O)(O)O [DR-2186-52-02], which “Observation at 5° C.” value [5] is on record?
Its value is “X”.

And the “Observation at 50° C.” value [5]?
The value was “X”.

With COc1ccc2[nH]cc(CCN(C)C)c2c1.O=C(O)CC(O)C(=O)O [Malate salt, 5-MeO-DMT malate] as the compound, how does the “thermal stability up to (TGA)” value [1] read?
Its value is “around 170 °C”.

And the “crystalline form after storage (XRPD)” value [6]?
The value was “conversion to a “gum” material”.

For COc1ccc2[nH]cc(CCN(C)C)c2c1 [Phosphate Pattern 1, 5-MeO-DMT phosphate], which “total reversible mass change between 0-90% RH” value ([4]; DVS) is on record?
The value was 0.3 wt. %.

With COc1ccc2[nH]cc(CCN(C)C)c2c1 [Phosphate salt, 5-MeO-DMT phosphate] as the compound, how does the “change of crystalline form during the DVS experiment (DVS / post-DVS XRPD)” value [2] read?
Its value is “no evidence of form change”.

And the “crystalline form after storage (XRPD)” value [6]?
Its value is “did not undergo any transformation”.

What does the source list for COc1ccc2[nH]cc(CCN(C)C)c2c1 [Tartrate salt, 5-MeO-DMT tartrate]?
thermal stability up to (TGA) [1]: around 170 °C; change of crystalline form during the DVS experiment (DVS / post-DVS XRPD) [2]: did not undergo any solid form transformation; hygroscopicity class [2]: moderately hygroscopic (Pharmaceuticals that pick up between 2.0% and 15.0% moisture at 80% RH are considered moderately hygroscopic); hygroscopicity class ([2]; listed as tartrate salt): moderately hygroscopic (Pharmaceuticals that pick up between 2.0% and 15.0% moisture at 80% RH are considered moderately hygroscopic); crystalline form after storage (XRPD) [6]: No change in the crystalline form

Which “change of crystalline form during the DVS experiment (DVS / post-DVS XRPD)” value [2] does the source give for COc1ccc2[nH]cc(CCN(C)C)c2c1 [Tosylate salt, 5-MeO-DMT tosylate] here?
The value was “did not undergo any solid-state changes”.

And the hygroscopicity class [2]?
The hygroscopicity class was “slightly hygroscopic (Pharmaceuticals that pick up between 0.2% and 2.0% moisture at 80% RH are considered slightly hygroscopic)”.

And the “crystalline form after storage (XRPD)” value [6]?
Its value is “identical XRPD pattern as the input material”.

Which solubility [7] does the source give for COc1ccc2[nH]cc(CCN(C)C)c2c1.O=C(O)c1ccccc1 [benzoate salt, 5-MeO-DMT benzoate] here?
The solubility was no less than 100 mg/mL.

And the “XRPD Result” value ([8]; evaporation at RT of lyophilised benzoate salt from 1-PrOH (DJP2202-010-02))?
Its value is “Oil”.

What about the “XRPD Result” value ([8]; evaporation at RT of lyophilised benzoate salt from EtOH (DJP2202-010-05)) of the same compound?
Its value is “Oil”.

What about the “XRPD Result” value ([8]; evaporation at RT of lyophilised benzoate salt from IPA (DJP2202-010-06)) of the same compound?
Its value is “Pattern 4”.

And the “XRPD Result” value ([8]; evaporation at RT of lyophilised benzoate salt from IPAc (DJP2202-010-10))?
The value was “Pattern 2”.

And the “XRPD Result” value ([8]; evaporation at RT of lyophilised benzoate salt from MEK (DJP2202-010-11))?
The value was “Pattern 4”.

And the “XRPD Result” value ([8]; evaporation at RT of lyophilised benzoate salt from MIBK (DJP2202-010-04))?
The value was “Oil”.

And the “XRPD Result” value ([8]; evaporation at RT of lyophilised benzoate salt from MeCN (DJP2202-010-12))?
The value was “Pattern 4”.

What about the “XRPD Result” value ([8]; evaporation at RT of lyophilised benzoate salt from THF (DJP2202-010-07)) of the same compound?
The value was “Pattern 4”.

And the “XRPD Result” value ([8]; evaporation at RT of lyophilised benzoate salt from chlorobenzene (DJP2202-010-09))?
Its value is “Pattern 4”.

And the “XRPD Result” value ([8]; evaporation at RT of lyophilised benzoate salt from dioxane (DJP2202-010-08))?
The value was “Pattern 4”.

Which “thermal stability up to (TGA)” value [1] does the source give for COc1ccc2[nH]cc(CCN(C)C)c2c1 [glycolate salt, 5-MeO-DMT glycolate] here?
Its value is “around 155 °C”.

And the “moisture absorption at 70% RH” value [2]?
Its value is 11 % w/w.

What about the “moisture absorption at 80% RH” value [2] of the same compound?
The value was 33 % w/w.

And the “water uptake up to 60% RH” value [2]?
The value was 2.3 % w/w.

What about the “deliquescence during DVS” value [2] of the same compound?
Its value is “begins to deliquesce”.

With COc1ccc2[nH]cc(CCN(C)C)c2c1.Cl [hydrochloride salt, 5-MeO-DMT hydrochloride] as the compound, how does the “thermal stability up to (TGA)” value [1] read?
Its value is roughly 235 °C.

And the “XRPD Results” value ([8]; evaporation at RT of lyophilised hydrochloride salt from 1-PrOH (DJP2202-011-02))?
The value was “Pattern 1”.

And the “XRPD Results” value ([8]; evaporation at RT of lyophilised hydrochloride salt from EtOH (DJP2202-011-05))?
The value was “Pattern 1”.

What about the “XRPD Results” value ([8]; evaporation at RT of lyophilised hydrochloride salt from IPA (DJP2202-011-06)) of the same compound?
Its value is “Pattern 1”.

And the “XRPD Results” value ([8]; evaporation at RT of lyophilised hydrochloride salt from MEK (DJP2202-011-11))?
Its value is “Pattern 1”.

What about the “XRPD Results” value ([8]; evaporation at RT of lyophilised hydrochloride salt from MeCN (DJP2202-011-12)) of the same compound?
Its value is “Oil”.
